Biological target: PIK3CA (human) (UniProt P42336)
Experiment: Inhibition of PIK3CA Kinase Activity

Chain of PIK3CA (human) (P42336 whole entry, looked up): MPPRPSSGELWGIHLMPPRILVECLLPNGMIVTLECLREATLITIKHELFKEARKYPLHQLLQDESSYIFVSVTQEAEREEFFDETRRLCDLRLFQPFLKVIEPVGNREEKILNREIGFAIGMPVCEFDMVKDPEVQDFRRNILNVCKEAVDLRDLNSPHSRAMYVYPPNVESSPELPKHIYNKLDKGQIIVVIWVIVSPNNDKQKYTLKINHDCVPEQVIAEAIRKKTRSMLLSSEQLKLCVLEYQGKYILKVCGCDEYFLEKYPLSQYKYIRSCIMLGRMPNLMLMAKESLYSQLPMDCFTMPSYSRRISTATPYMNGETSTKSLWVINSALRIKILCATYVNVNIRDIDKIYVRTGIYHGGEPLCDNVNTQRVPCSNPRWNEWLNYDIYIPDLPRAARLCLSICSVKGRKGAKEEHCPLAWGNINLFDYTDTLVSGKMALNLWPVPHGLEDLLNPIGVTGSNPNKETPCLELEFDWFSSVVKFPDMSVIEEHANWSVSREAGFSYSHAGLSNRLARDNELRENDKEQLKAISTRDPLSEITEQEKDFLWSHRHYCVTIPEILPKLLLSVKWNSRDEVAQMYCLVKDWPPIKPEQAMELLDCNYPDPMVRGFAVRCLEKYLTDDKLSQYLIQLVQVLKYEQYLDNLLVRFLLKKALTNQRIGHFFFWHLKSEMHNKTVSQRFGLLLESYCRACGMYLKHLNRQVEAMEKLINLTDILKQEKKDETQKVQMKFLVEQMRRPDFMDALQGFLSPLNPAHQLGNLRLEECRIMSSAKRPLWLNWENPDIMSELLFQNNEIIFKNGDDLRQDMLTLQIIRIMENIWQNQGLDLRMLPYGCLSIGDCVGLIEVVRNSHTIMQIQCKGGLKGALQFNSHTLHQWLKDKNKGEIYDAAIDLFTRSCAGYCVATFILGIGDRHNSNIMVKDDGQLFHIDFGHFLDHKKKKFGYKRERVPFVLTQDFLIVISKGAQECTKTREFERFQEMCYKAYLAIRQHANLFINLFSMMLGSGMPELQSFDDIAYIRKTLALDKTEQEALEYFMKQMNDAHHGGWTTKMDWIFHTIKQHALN

SMILES | IC50
CCC(C)n1c(SC)nc2c(-c3cnc(N)cn3)nc(N3CCOCC3)nc21 (centres undefined) | 0.1 to 1 µM
CCC(C)n1c(N2CCN(CC)CC2)nc2c(-c3cnc(N)nc3)nc(N3CCOCC3)nc21 (centres undefined) | 0.1 to 1 µM
CC1CCCCC1n1c(N(C)C)nc2c(-c3cnc(N)nc3)nc(N3CCOCC3)nc21 (centres undefined) | 0.1 to 1 µM
CCC(C)n1c(NC(C)C)nc2c(-c3cnc(N)cn3)nc(N3CCOCC3)nc21 (centres undefined) | 0.1 to 1 µM
CN1CCN(c2nc3c(-c4cnc(N)nc4)nc(N4CCOCC4)nc3n2C2CCCC2)CC1 | 0.1 to 1 µM
CCC(C)n1c(NCCN(C)C)nc2c(-c3cnc(N)nc3)nc(N3CCOCC3)nc21 (centres undefined) | 0.1 to 1 µM
CCC(C)n1c(N(C)C)nc2c(-c3cnc(N)nc3)nc(N3CCOCC3)nc21 (centres undefined) | < 0.1 µM
Nc1ncc(-c2nc(N3CCOCC3)nc3c2nc(-c2ccsc2)n3C2CCCC2)cn1 | < 0.1 µM
CC(C)Nc1nc2c(-c3cnc(N)nc3)nc(N3CCOCC3)nc2n1C1CCCC1 | < 0.1 µM
CCC(C)n1c(N2CCCC2C)nc2c(-c3cnc(N)nc3)nc(N3CCOCC3)nc21 (centres undefined) | 0.1 to 1 µM
CCC(C)n1c(N2CCCC2)nc2c(-c3cnc(N)nc3)nc(N3CCOCC3)nc21 (centres undefined) | 0.1 to 1 µM
CCCCNc1nc2c(-c3cnc(N)nc3)nc(N3CCOCC3)nc2n1C(C)CC (centres undefined) | < 0.1 µM
CCSc1nc2c(-c3cnc(N)cn3)nc(N3CCOCC3)nc2n1C(C)CC (centres undefined) | 0.1 to 1 µM
CN(C)c1nc2c(-c3cnc(N)nc3)nc(N3CCOCC3)nc2n1C1CCCC1 | < 0.1 µM
CCOc1nc2c(-c3cnc(N)nc3)nc(N3CCOCC3)nc2n1C(C)CC (centres undefined) | 0.1 to 1 µM
CCCCNc1nc2c(-c3cnc(N)nc3)nc(N3CCOCC3)nc2n1C1CCCC1 | < 0.1 µM
CC(C)n1c(OC2CCCC2)nc2c(-c3cnc(N)nc3)nc(N3CCOCC3)nc21 | 0.1 to 1 µM
CC(C)Nc1nc2c(-c3cnc(N)nc3)nc(N3CCOCC3)nc2n1C1CCCCC1C (centres undefined) | < 0.1 µM
CCC(C)n1c(NCCOC)nc2c(-c3cnc(N)nc3)nc(N3CCOCC3)nc21 (centres undefined) | < 0.1 µM
Nc1ncc(-c2nc(N3CCOCC3)nc3c2nc(NCC2CC2)n3C2CCCC2)cn1 | < 0.1 µM

The remaining lines, values ahead:

IC50 | SMILES
0.1 to 1 µM | CCC(C)n1c(Sc2ccccc2)nc2c(-c3cnc(N)nc3)nc(N3CCOCC3)nc21 (centres undefined)
0.1 to 1 µM | CC(C)n1c(-c2ccccc2)nc2c(-c3cnc(N)cn3)nc(N3CCOCC3)nc21
< 0.1 µM | CC(=O)Nc1cccc(-c2nc3c(-c4cnc(N)nc4)nc(N4CCOCC4)nc3n2C(C)C)c1
< 0.1 µM | CSc1nc2c(-c3cnc(N)nc3)nc(N3CCOCC3)nc2n1C(C)C
< 0.1 µM | CC(C)n1c(-c2ccsc2)nc2c(-c3cnc(N)nc3)nc(N3CCOCC3)nc21
0.1 to 1 µM | CCC(C)n1c(N2CCc3ccccc3C2)nc2c(-c3cnc(N)nc3)nc(N3CCOCC3)nc21 (centres undefined)
0.1 to 1 µM | CCC(C)n1c(-c2ccccc2)nc2c(-c3cnc(N)nc3)nc(N3CCOCC3)nc21 (centres undefined)
< 0.1 µM | CCC(C)n1c(NC(C)C)nc2c(-c3cnc(N)nc3)nc(N3CCOCC3)nc21 (centres undefined)
< 0.1 µM | CCC(C)n1c(-c2ccsc2)nc2c(-c3cnc(N)nc3)nc(N3CCOCC3)nc21 (centres undefined)
0.1 to 1 µM | CCC(C)n1c(SC)nc2c(-c3cnc(N)nc3)nc(N3CCOCC3)nc21 (centres undefined)
< 0.1 µM | CC(C)Nc1nc2c(-c3cnc(N)nc3)nc(N3CCOCC3)nc2n1C(C)C
< 0.1 µM | CC(C)n1c(-c2ccc3c(c2)OCO3)nc2c(-c3cnc(N)nc3)nc(N3CCOCC3)nc21
< 0.1 µM | CCSc1nc2c(-c3cnc(N)nc3)nc(N3CCOCC3)nc2n1C(C)C
< 0.1 µM | CC(C)n1c(-c2ccccc2)nc2c(-c3cnc(N)nc3)nc(N3CCOCC3)nc21
